Experimental data reported in patent US20240287052A1, “NOVEL OXAZOLE DERIVATIVE AND PHARMACEUTICAL COMPOSITION FOR PREVENTING OR TREATING ALLERGIC DISEASES COMPRISING THE SAME” (AZCURIS CO., LTD., priority 2021, published 2024).
Like-named read-outs stand apart in the source and are kept apart here.

Key:
[1] = system: IL-6 secretion in the human mast cell line HMC 1.1; test: IL-6 production inhibition assay (IL-33 stimulated HMC 1.1 cells, IL-6 ELISA); type: cell-based; settings: for inhibition at 1 µM: 1 μM compound, read-out: Inhibition of hIL-6 production (%) 1 μM; for inhibition at 1 µM / inhibition at 10 µM / inhibition at 0.1 µM: 24 hours; for inhibition at 10 µM: 10 μM compound, read-out: Inhibition of hIL-6 production (%) 10 μM; for EC50: read-out: Inhibition of hIL-6 production EC50; for inhibition at 0.1 µM: 0.1 μM compound, read-out: Inhibition of hIL-6 production (%) 0.1 μM
How it was run: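 HMC 1.1 cells stimulated with 200 nM recombinant human IL-33 were exposed 24 hours to compound at 10 μM, 25 μM, 30 μM or 50 μM, among other levels. Secreted IL-6 was quantified by ELISA in triplicate against a standard curve and expressed as % of vehicle.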

IL33 and ST2 binding [2] = biological target: T1, IL33 and ST2 binding (Homo sapiens, UniProt O95760); test: biochemical;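 also: plate ELISA with coated Flag-tagged human IL-33 and His-tagged human ST2, bound ST2 detected by anti-His HRP and TMB absorbance at 450 nm, 2 h compound incubation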
T1 sequence (O95760 112-270 limits assumed): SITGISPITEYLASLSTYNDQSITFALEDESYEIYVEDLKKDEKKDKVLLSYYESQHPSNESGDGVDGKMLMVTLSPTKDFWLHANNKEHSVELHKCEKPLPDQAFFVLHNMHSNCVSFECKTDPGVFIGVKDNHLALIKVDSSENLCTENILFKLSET

IL33 and ST2 binding [3] = biological target: T1, IL33 and ST2 binding
[4] = system: Human liver cancer cell line HepG2 cells; test: Cellular viability, WST-8 assay, without or with human liver microsomes; type: cell-based; settings: for Cellular viability (%) (+) microsome: HepG2, with human liver microsomes; for Cellular viability (%) (−) microsome: HepG2, without human liver microsomes
Experimental: (§1) Human liver cancer cell line HepG2 cells were cultured in a medium (high glucose Dulbecco's Modified Eagle Medium, DMEM, HyClone) supplemented with 10% fetal bovine serum (FBS, HyClone) and 1% antibiotic in a thermostat maintained at 37° C. with 5% CO2.
(§2) HepG2 cells, which are adherent cells, were […] or presence of human liver microsomes (Gibco) and NADPH regenerating system.
(§3) Cell cultures were exchanged using […] of medium (high glucose Dulbecco's Modified Eagle Medium, DMEM, HyClone) and incubated for 24 hours.
(§4) After adding 10 μL of WST-8 (abCam), the absorbance was obtained at 460 nm after 5 seconds of orbital shaking with a microplate reader (Tecan, Spark©) 2 hours later.
(§5) The mean of the three values obtained in triplicate was calculated and expressed as % cellular viability compared to vehicle treatment.

[5] = as above; type: cell-based
Experimental: as §1, §2, §3, §4, §5

[6] = HepG2, with human liver microsomes, read-out: CC50 (μM) (+) microsome
[7] = HepG2 cells, HepG2, without human liver microsomes, read-out: CC50 (μM) (−) microsome

Row | EC50 [1] [µM] | IC50 (IL33 and ST2 binding [2]) [µM] | inhibition (IL33 and ST2 binding [3]; 30 µM) [%] | inhibition (IL33 and ST2 binding [3]; 100 µM) [%] | Structure (SMILES) | inhibition at 1 µM [1] [%] | inhibition at 10 µM [1] [%] | Cellular viability (%) (+) microsome ([4]; at 100 μM) [at %] | Cellular viability (%) (−) microsome ([4]; at 100 μM) [at %] | CC50 at 24 h [5, 6] [µM] | CC50 at 24 h [5, 7] [µM] | inhibition at 0.1 µM [1] [%] | Cellular viability (%) (+) microsome ([4]; at 135 μM) [at %] | Cellular viability (%) (−) microsome ([4]; at 135 μM) [at %]
1 | 6.15 | 4.78 | 110 | 112 | CN(C)CCNC(=O)c1nc(-c2ccc(Cl)cc2)oc1-c1ccccc1[N+](=O)[O-] [Compound 246, 2-(4-Chlorophenyl)-N-(2-(dimethylamino)ethyl)-5-(2-nitrophenyl)oxazole-4-carboxamide] | 20 | 45 | 52 | 47 | 16 | 11.8 | – | – | –
2 | 0.42 | 4.17 | 97 | 97 | CSc1ccc(-c2nc(C(=O)NCCN3CCN(C)CC3)c(-c3ccccc3)o2)cc1 [Compound 272, N-(2-(4-Methylpiperazin-1-yl)ethyl)-2-(4-(methylthio)phenyl)-5-phenyloxazole-4-carboxamide] | 52 | 79 | 49 | 46 | 5.6 | 4.73 | – | – | –
3 | 0.23 | 0.78 | 110 | 109 | CCOC(=O)c1nc(-c2ccc(C(F)(F)F)cc2)oc1-c1ccccc1 [Compound 31, Ethyl 5-phenyl-2-(4-(trifluoromethyl)phenyl)oxazole-4-carboxylate] | 56 | 69 | – | – | – | – | 46 | 66 | 83
4 | 2.26 | 7.99 | 115 | 115 | CCOC(=O)c1nc(-c2ccc(C(F)(F)F)cc2)oc1-c1ccccc1OC(F)(F)F [Compound 52, Ethyl 5-(2-(trifluoromethoxy)phenyl)-2-(4-(trifluoromethyl)phenyl)oxazole-4-carboxylate] | 22 | 48 | 97 | 117 | – | – | – | – | –
5 | – | 4.51 | 112 | 112 | CNC(=O)c1nc(-c2ccc(C(F)(F)F)cc2)oc1-c1cccc(SC)c1 [Compound 290, N-Methyl-5-(3-(methylthio)phenyl)-2-(4-(trifluoromethyl)phenyl)oxazole-4-carboxamide] | 49 | 59 | – | – | – | – | 28 | 60 | 47
6 | – | 11.7 | 93 | 108 | CCOC(=O)c1nc(-c2cccc(Cl)c2)oc1-c1ccccc1 [Compound 75, Ethyl 2-(3-chlorophenyl)-5-phenyloxazole-4-carboxylate] | 5 | 26 | 100 | 106 | – | – | – | – | –
7 | 2.56 | 1.26 | 100 | – | CCOC(=O)c1nc(-c2ccc(C(F)(F)F)cc2)oc1-c1ccccc1OC [Compound 44, Ethyl 5-(2-methoxyphenyl)-2-(4-(trifluoromethyl)phenyl)oxazole-4-carboxylate] | 38 | 77 | 99 | 68 | – | – | – | – | –
8 | 0.09 | 1.13 | 110 | 112 | CCCNC(=O)c1nc(-c2ccc(C(F)(F)F)cc2)oc1-c1cccc(SC)c1 [Compound 292, 5-(3-(Methylthio)phenyl)-N-propyl-2-(4-(trifluoromethyl)phenyl)oxazole-4-carboxamide] | 39 | 42 | – | – | – | – | 29 | 58 | 55
